Assays:
human pancreatic lipase [1] = assay: pH dependence of human pancreatic lipase activity in the presence of bile acids (diglyceride substrate, UV method); type: biochemical; conditions: pH 7.2
human pancreatic lipase [2] = assay: as above; type: biochemical
Method: After weighing 1,2-dioleoyl glycerol (DODG) (manufactured by Nippon Fine Chemical Co., Ltd.) to attain a concentration of 9.32 mmol/L when dissolved, 1% polyoxyethylene (10) nonyl phenyl ether (NPE) (manufactured by Wako Pure Chemical Industries Ltd.) containing 1.66 mmol/L of MES (manufactured by Dojindo Laboratories) was added thereto to be dissolved therein by stirring at 37° C. for 2 hours, and the resultant was allowed to stand still in ice for 2 hours or more. The thus obtained solution was used as a substrate original liquid.
The above-described diglyceride original liquid was used for preparing a “substrate stock solution” having the following composition:
A “first reaction solution (R-1)” having the following composition was prepared:
A “second reaction solution (R-2)” having the following composition was prepared:
A “second reaction solution (R-2) for sample blank” having the following composition was prepared:
A mixture of the substrate stock solution and the R-1 in a proportion of 1:2 was used as a first reagent. The R-2 was directly used as a second reagent. As a sample, pooled serum or a control sample (a control containing a pancreatic lipase) was used. A proportion in amount among the sample, the first reagent and the second reagent was set as sample:first reagent:second reagent of 0.01 ml:0.18 ml:0.06 ml. The sample was added to the first reagent, the resultant mixture was heated at 37° C. for 5 minutes, the second reagent was added thereto, and a change rate of an absorbance at 340 nm based on reduced NADP was obtained at 37° C. from 3 minutes after the addition of the second reagent to 4 minutes after the addition, and then, the lipase activity was calculated by using a molecular extinction coefficient of 6300 L/mol·cm of the reduced NADP. Besides, as a sample blank, saline was used instead of a sample, an absorbance was measured by using the reagent for sample blank obtained by removing MGLPII from the second reagent, and a difference between the thus measured two values was defined as an enzyme activity value. For the measurement, Hitachi automatic analyzer Model H7170 or H7080 was used.
As a conjugated bile acid to be added to the R-1, sodium taurodeoxycholate (NaTDCA), sodium glycodeoxycholate (NaGDCA), sodium glycochenodeoxycholate (NaGCDCA), sodium taurochenodeoxycholate (NaTCDCA), sodium glycocholate (NaGCA), sodium taurocholate (NaTCA) and sodium tauroursodeoxycholate (NaTUDCA) all in a concentration of 40 mmol/L were selected, the R-1 was adjusted, by using BES (manufactured by Dojindo Laboratories) respectively to pH 6.8, 7.0, 7.2, 7.4, 7.8, and 8.0, and the human pancreatic lipase activity was measured by using these. The pH of the R-2 was adjusted to be equal to that of the R-1.
It is noted that the concentration of each non-conjugated bile acid was set to be 24 mmol/L in the R-1. Besides, BES was used for adjusting pH to 7.2, 7.6, 7.8 and 8.0, and Bicine was used for adjusting pH to 8.2 and 8.5.
Similarly to Example 1, a mixture of the substrate stock solution and the R-1 in a proportion of 1:2 was used as a first reagent. Except for this, the measurement was performed in the same manner as in Example 1.
Besides, NaTCA was also combined with a conjugated bile acid, NaTDCA, to examine the pH for giving a maximum value of the human pancreatic lipase activity (the apparent optimum pH). It is noted that a BES buffer was used for adjusting pH to 6.9, 7.2 and 7.7, and a Bicine buffer was used for adjusting pH to 7.95 and 8.2. In each of the combinations of NaGCA/NaDCA, NaTCA/NaDCA, NaTUDCA/NaDCA and NaTCA/NaTDCA, the concentration of each bile acid was set to 20 mmol/L in the R-1. With respect to the combination of NaTCA and NaTDCA, a concentration of 40 mmol/L of NaTDCA was used as a control.
The compositions of the reagents and the measurement operation were the same as those of Example 2.

- proportion of the bile acid to the substrate for attaining the maximum lipase activity (human pancreatic lipase [1]; substrate concentration 1.40 mmol/L): about 17
- proportion of the bile acid to the substrate for attaining the maximum lipase activity (human pancreatic lipase [1]; substrate concentration 1.63 mmol/L): about 15
- optimum pH (human pancreatic lipase [2]; NaTDCA 40 mmol/L control of Example 2): about 7.1
- pH for giving a maximum value of the human pancreatic lipase activity (apparent optimum pH) (human pancreatic lipase [2]; pooled serum, conjugated bile acid singly, 40 mmol/L in R-1, BES pH 6.8-8.0): about 7
SMILES: C[C@H](CCC(=O)NCCS(=O)(=O)[O-])[C@H]1CC[C@H]2[C@@H]3CC[C@@H]4C[C@H](O)CC[C@]4(C)[C@H]3C[C@H](O)[C@]12C.[Na+] [NaTDCA, sodium taurodeoxycholate]
